Values quoted from earlier work, collected in PMC4177305 (ChemMedChem, 2014).
pKd: −log10 of the molar value.

Key:
human serum albumin = human serum albumin (Homo sapiens, UniProt P02768); conditions: reported affinity of MS-325 to human serum albumin
[1] = system: human serum albumin (HSA); conditions: displaces site II ligands rather than site I ligands
[2] = in humans

Sequence of human serum albumin (P02768 25-609): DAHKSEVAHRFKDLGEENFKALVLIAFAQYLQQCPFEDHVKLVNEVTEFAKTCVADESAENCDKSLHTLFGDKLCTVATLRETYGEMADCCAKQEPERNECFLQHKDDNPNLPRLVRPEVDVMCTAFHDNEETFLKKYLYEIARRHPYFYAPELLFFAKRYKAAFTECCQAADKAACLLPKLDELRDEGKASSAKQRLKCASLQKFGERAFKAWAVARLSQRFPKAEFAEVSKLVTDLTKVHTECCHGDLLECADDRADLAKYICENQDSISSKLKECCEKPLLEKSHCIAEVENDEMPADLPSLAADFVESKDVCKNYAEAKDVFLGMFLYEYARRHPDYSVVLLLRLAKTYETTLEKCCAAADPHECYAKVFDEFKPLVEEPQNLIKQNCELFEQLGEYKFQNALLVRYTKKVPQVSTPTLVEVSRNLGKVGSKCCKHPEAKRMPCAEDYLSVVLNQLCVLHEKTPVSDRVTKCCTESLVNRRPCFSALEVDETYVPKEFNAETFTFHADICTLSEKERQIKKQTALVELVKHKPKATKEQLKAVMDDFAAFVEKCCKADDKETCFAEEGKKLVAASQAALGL

O=C([O-])CN(CCN(CC(=O)[O-])CC(COP(=O)([O-])OC1CCC(c2ccccc2)(c2ccccc2)CC1)N(CC(=O)[O-])CC(=O)[O-])CC(=O)[O-].[Gd+3].[Na+].[Na+].[Na+] (stereo not drawn) [MS-325, gadofosveset trisodium]
pKd (human serum albumin): 3.79 | albumin binding site [1]: binds primarily to site II | intravascular half-life [2]: 18.5 ± 3 h
